Experimental data taken from patent US7176313B2, “Anti acid-fast bacterial agent containing pyridonecarboxylic acids as active ingredient” (Daiichi Pharmaceutical Co., Ltd., priority 2000, dated 2007).
Values after ≈ are worked out from the molar mass of the structure shown. Read-outs that look alike come from different tables or passages of the source.

How the values were obtained:
[1] = tested on: Mycobacterium tuberculosis (RFP sensitive); experiment: Antibacterial activity (MIC) against Mycobacterium tuberculosis (RFP sensitive); assay type: cell-based; settings: Mycobacterium tuberculosis, read-out: MIC
[2] = Mouse acute toxicity test; assay type: in vivo, Male Slc:ddY mice; settings: intravenous; for survival of mice after administration / acute toxicity: text summary of Table 9; for Mortality (dead/ test) / acute toxicity: mice
Protocol: Mouse Acute Toxicity Test
Male Slc:ddY mice at age of 5-weeks were used as test animals. For dissolving the compounds, 0.1 mol/l NaOH (in saline) was used. Mice were administered intravenously at a rate of 0.1 ml/30 seconds at a dosing volume of 10 ml/kg.

[3] = tested on: M. avium; experiment: Antibacterial activity (MIC) against M. avium; assay type: cell-based, Mycobacterium avium; settings: Mycobacterium avium, read-out: MIC
Protocol: Antibacterial activity of the compounds of the invention was measured in accordance with the method described in the literature of Antimicrob. […] In the tables, “OFLX” is an abbreviation of “OFLOXAIN”.

[4] = tested on: M. intracellulare; experiment: Antibacterial activity (MIC) against M. intracellulare; assay type: cell-based, Mycobacterium intracellulare
Protocol: Antibacterial activity of the compounds of the invention was measured in accordance with the method described in the literature of Antimicrob. Agents and Chemother., 38, 2877 (1994), and the results are shown in Tables 3 to 8 in terms of MIC (μg/ml). In the tables, “OFLX” is an abbreviation of “OFLOXAIN”.

[5] = tested on: reticulocytes (RC); experiment: Peripheral blood micronucleus test; assay type: in vivo, Male Slc:ddY mice; settings: mice, intravenous; for MNRC (%) mean ±S.E. 24 hours: 24 hours after administration; for MNRC (%) mean ±S.E. 48 hours: 48 hours after administration; for micronucleus induction: (untreated control: 0.12±0.08)
Protocol: Peripheral Blood Micronucleus Test
Used animals and administration method are similar to those in the mouse acute toxicity test. Samples were prepared by collecting 5 μl each of blood sample from the tail vein at 24 and 48 hours after the administration, dropping the blood on a slide at which 0.1% acridine orange solution had been applied in advance, sealing the slide with a cover glass immediately, and allowing it to stand in a refrigerator for 24 hours.

COc1c(N2CCNC(C3CC3)C2)c(F)cc2c(=O)c(C(=O)O)cn([C@@H]3C[C@@H]3F)c12 (stereo partly drawn) [Compd. 24, 7-(3-Cyclopropylpiperazin-1-yl)-6-fluoro-1-[(1R,2S)-2-fluorocyclopropyl]-1,4-dihydro-8-methoxy-4-oxoquinoline-3-carboxylic acid] showed a melting point of 136 to 139 °C.

With COc1c(N2CCNC(CF)C2)c(F)cc2c(=O)c(C(=O)O)cn([C@@H]3C[C@@H]3F)c12 (stereo partly drawn) [Compd. 19, 6-Fluoro-1-[(1R,2S)-2-fluorocyclopropyl]-7-(3-fluoromethylpiperazin-1-yl)-1,4-dihydro-8-methoxy-4-oxoquinoline-3-carboxylic acid] the melting point was 153 to 156 °C.

In the case of COc1c(C2CNC3(CCC3)CN2)c(F)cc2c(=O)c(C(=O)O)cn([C@@H]3C[C@@H]3F)c12 (stereo partly drawn) [Compd. 23, 7-{5,8-Diazaspiro[3.5]nonan-7-yl}-6-fluoro-1-[(1R,2S)-2-fluorocyclopropyl]-1,4-dihydro-8-methoxy-4-oxoquinoline-3-carboxylic acid], the melting point is reported as 138 to 140 °C (dec.).

For COCC1CN(c2c(F)cc3c(=O)c(C(=O)O)cn([C@@H]4C[C@@H]4F)c3c2OC)CCN1 (stereo partly drawn) [Compd. 21, 6-Fluoro-1-[(1R,2S)-2-fluorocyclopropyl]-1,4-dihydro-8-methoxy-7-(3-methoxymethylpiperazin-1-yl)-4-oxoquinoline-3-carboxylic acid], the melting point was 92 to 95 °C.

COc1c(N2C[C@@H](C)N[C@@H](C)C2)c(F)cc2c(=O)c(C(=O)O)cn([C@@H]3C[C@@H]3F)c12 [Compd. 16, 7-(3,5-cis-Dimethylpiperazin-1-yl)-6-fluoro-1-[2-(S)-fluoro-1-(R)-cyclopropyl]-1,4-dihydro-8-methoxy-4-oxoquinoline-3-carboxylic acid] gave an MIC ([1]; H37RV, M. tuberculosis H37Rv, Table 6 (series 2)) of 0.12 µg/mL (≈ 0.295 µM), an MIC ([1]; M. tuberculosis Kurono, Table 6 (series 2)) of 0.12 µg/mL (≈ 0.295 µM) and an MIC ([1]; M. tuberculosis No. 40, Table 6 (series 2)) of 0.12 µg/mL (≈ 0.295 µM). For the same compound, the MIC ([1]; M. tuberculosis No. 41, Table 6 (series 2)) was 0.03 µg/mL (≈ 0.0736 µM), the MIC ([1]; M. tuberculosis No. 43, Table 6 (series 2)) was 1 µg/mL (≈ 2.45 µM) and the MIC ([1]; M. tuberculosis No. 68, Table 6 (series 2)) was 0.12 µg/mL (≈ 0.295 µM). For the same compound, the “survival of mice after administration” value [2] was “all mice were survived”, the “Mortality (dead/ test)” value ([2]; 150 mg/kg) was 0/5 and the acute toxicity [2] was “relatively weak”. The MIC ([3]; M. avium N-357, Table 4 (series 2)) was 0.5 µg/mL (≈ 1.23 µM), the MIC ([3]; M. avium N-444, Table 4 (series 2)) was 1 µg/mL (≈ 2.45 µM) and the MIC ([3]; M. avium N-458, Table 4 (series 2)) was 0.5 µg/mL (≈ 1.23 µM). For the same compound, the MIC ([3]; M. avium N-472, Table 4 (series 2)) was 4 µg/mL (≈ 9.82 µM), the MIC ([4]; Mycobacterium intracellulare, M. intracellulare N-294, Table 4 (series 2), read-out: MIC) was 1 µg/mL (≈ 2.45 µM) and the MIC ([4]; Mycobacterium intracellulare, M. intracellulare N-313, Table 4 (series 2), read-out: MIC) was 0.12 µg/mL (≈ 0.295 µM). For the same compound, the MIC ([4]; Mycobacterium intracellulare, M. intracellulare N-338, Table 4 (series 2), read-out: MIC) was 0.5 µg/mL (≈ 1.23 µM), the MIC ([4]; Mycobacterium intracellulare, M. intracellulare N-345, Table 4 (series 2), read-out: MIC) was 0.5 µg/mL (≈ 1.23 µM) and the “MNRC (%) mean ±S.E. 24 hours” value ([5]; 150 mg/kg) was 0.05 ± 0.03%. The “MNRC (%) mean ±S.E. 48 hours” value ([5]; 150 mg/kg) was 0.12 ± 0.02% and the micronucleus induction [5] was “weak”.

In the case of COc1c(N2CCNC3(CC3)C2)c(F)cc2c(=O)c(C(=O)O)cn([C@@H]3C[C@@H]3F)c12 [Compd. 22, 7-{4,7-Diazaspiro[2.5]octan-7-yl}-6-fluoro-1-[(1R,2S)-2-fluorocyclopropyl]-1,4-dihydro-8-methoxy-4-oxoquinoline-3-carboxylic acid], the melting point is reported as 164 to 167 °C (dec.).

For COc1c(N2CCN(C)CC2)c(F)cc2c(=O)c(C(=O)O)cn([C@@H]3C[C@@H]3F)c12 [Compd. 15, 6-Fluoro-1-[2-(S)-fluoro-1-(R)-cyclopropyl]-1,4-dihydro-8-methoxy-7-(4-methylpiperazin-1-yl)-4-oxoquinoline-3-carboxylic acid], the MIC ([1]; H37RV, M. tuberculosis H37Rv, Table 5) was 0.1 µg/mL (≈ 0.254 µM), the MIC ([1]; M. tuberculosis Kurono, Table 5) was 0.05 µg/mL (≈ 0.127 µM) and the MIC ([1]; M. tuberculosis No. 40, Table 5) was 0.05 µg/mL (≈ 0.127 µM). For the same compound, the MIC ([1]; M. tuberculosis No. 41, Table 5) was 0.025 µg/mL (≈ 0.0636 µM), the MIC ([1]; M. tuberculosis No. 43, Table 5) was 0.39 µg/mL (≈ 0.991 µM) and the MIC ([1]; M. tuberculosis No. 68, Table 5) was 0.1 µg/mL (≈ 0.254 µM). For the same compound, the “survival of mice after administration” value [2] was “all mice were survived”, the “Mortality (dead/ test)” value ([2]; 50 mg/kg) was 0/5 and the acute toxicity [2] was “relatively weak”. It also gave an MIC ([3]; M. avium N-357, Table 3) of 0.39 µg/mL (≈ 0.991 µM), an MIC ([3]; M. avium N-444, Table 3) of 0.78 µg/mL (≈ 1.98 µM) and an MIC ([3]; M. avium N-458, Table 3) of 0.2 µg/mL (≈ 0.508 µM). For the same compound, the MIC ([3]; M. avium N-472, Table 3) was 1.56 µg/mL (≈ 3.97 µM), the MIC ([4]; M. intracellulare N-338, Table 3) was 1.56 µg/mL (≈ 3.97 µM) and the MIC ([4]; Mycobacterium intracellulare, M. intracellulare N-313, Table 3, read-out: MIC) was 0.39 µg/mL (≈ 0.991 µM). The MIC ([4]; Mycobacterium intracellulare, M. intracellulare N-345, Table 3, read-out: MIC) was 3.13 µg/mL (≈ 7.96 µM), the MIC ([4]; Mycobacterium intracellulare, M. intracellulare N-294, Table 3, read-out: MIC) was 1.56 µg/mL (≈ 3.97 µM) and the “MNRC (%) mean ±S.E. 24 hours” value ([5]; 50 mg/kg) was 0.20 ± 0.04%. For the same compound, the “MNRC (%) mean ±S.E. 48 hours” value ([5]; 50 mg/kg) was 0.14 ± 0.04% and the micronucleus induction [5] was “weak”.

With COc1c(N2CCN3CCC2C3)c(F)cc2c(=O)c(C(=O)O)cn([C@@H]3C[C@@H]3F)c12 (stereo partly drawn) [Compd. 28, 7-{1,4-Diazabicyclo[3.2.1]octan-4-yl}-6-fluoro-1-[(1R,2S)-2-fluorocyclopropyl]-1,4-dihydro-8-methoxy-4-oxoquinoline-3-carboxylic acid] the melting point was 195 to 198 °C (dec.).
